Experimental findings from patent publication US9910031B2, “Compositions and methods for modulating c-Rel-dependent cytokine production” (Synta Pharmaceuticals Corporation, priority 2003, dated 2018) are described below.

One test deals with IκBβ. The test can be described thus: Inducible degradation of IκBβ, Western blot and FACS analysis. The class given is cell-based, human. As to conditions: THP-1 and RAW267.4 cells, IFN-γ/LPS or IFN-γ/SAC, 500 nM, 30 min and 2 hrs. The procedure:
IκB degradation is one of the steps in the signaling pathway of NFκB dependent genes. The activity of Compound 2 in inducible degradation of IκBα □ and IκBβ was investigated in THP-1 cells using Western blot and FACS analysis. […] Similar results were observed from the Compound 2 pre-treatment samples in which Compound 2 was added […] before stimulation.
Background: Immunoblotting shows a protein as a band on a membrane.

Another test has as its system p65. The test can be described thus: ELISA based transcriptional factor-DNA binding activity assay, THP-1 nuclear extracts, p65. As to conditions: IFN-γ/LPS, 500 nm, 3 hrs. Format: cell-based, human. The procedure:
Nuclear extracts were prepared from IFN-γ-primed THP-1 cells that had been treated with or without SAC and incubated in the presence or absence of 1 μM Compound 1 or 10 mM ASA. Isolation of nuclear extracts was accomplished by first suspending THP-1 cells in 20 volumes of buffer A containing 10 mM KCl, 10 mM HEPES (pH 7.9), 1 mM MgCl2, 1 mM dithiothreitol (DTT), 0.1% Nonidet p40 (NP-40), and 0.5 mM phenylmethylsulfonyl fluoride (PMSF) and then homogenizing and centrifuging at 10,000 rpm at 4° C. for 5 min. Nuclear pellets were then suspended in buffer C containing 400 mM NaCl, 20 mM HEPES pH 7.9), 15 mM MgCl2, 0.2 mM EDTA, 1 mM DTT, 25% glycerol, 1 mM PMSF, and 10 μg of leupeptin, 20 μg of pepstatin, and 10 μg of antipain per ml, incubated for 30 min at 4° C., and centrifuge at 14,000 rpm for […]. The supernatants were dialyzed against buffer D containing 100 mM NaCl, 20 mM HEPES (pH 7.9), 20% glycerol, 1 mM PMSF, and 1 mM DTT.
To understand the action of Compound 2 in NF-κB binding, several NF-κB family members, p50, c-Rel and p65 were investigated using an ELISA based transcriptional factor-DNA binding activity assay system. […]

For `Cc1cccc(C=NNc2cc(N3CCOCC3)nc(OCCc3ccccn3)n2)c1` [Compound 2, N-(3-methyl-benzylidene)-N′-[6-morpholin-4-yl-2-(2-pyridin-2-yl-ethoxy)-pyrimidin-4-yl]-hydrazine], the “amount of IκBβ in the cytoplasm, treated vs untreated” value in the test with IκBβ was “no significant difference”. In addition, the “binding activity of p65” value with p65 was “increased binding activity”.
